The source of these data is ChEMBL document CHEMBL1201862, “PubChem BioAssay data set” (2004).

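In this assay, cells in 96-well plates receive the compound at five concentrations for 48 hours. Endpoints are linearly interpolated between the surrounding concentrations. GI50 is the concentration that inhibits growth by half.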 Calls of active or inactive are those of the source. Rule as the data show it: active = GI50 up to about 1.1 µM and inactive = higher.

Common to all, as to test: DTP human tumour cell line panel, 48 h
The subject of assay [1] is 786-0.
The test system of assay [2] is A549.
In assay [3] the test system is CAKI-1.
Assay [4] deals with CCRF-CEM.
The subject of assay [5] is HCC 2998.
For assay [6], the system named is HCT-15.
For assay [7], the system named is HL-60.
For assay [8], the system named is HOP-92.
Assay [9] has as its system KM12.
The subject of assay [10] is LOX IMVI.
Assay [11] relates to NCI-H23.
For assay [12], the system named is NCI-H460.
In assay [13] the test system is SK-MEL-28.
The subject of assay [14] is SNB-19.
Assay [15] has as its system SW-620.
The subject of assay [16] is U-251.
For assay [17], the system named is UACC-257.
The subject of assay [18] is MDA-MB-231.
The test system of assay [19] is MDA-N.
For assay [20], the system named is BT-549.

On to `COc1cc2cnc3c4cc(OC)c(OC(C)C)cc4ccc3c2cc1OC`, for which the GI50 in [1] was > 100 µM (inactive); in assay [2] it was > 100 µM (inactive); in assay [3] it was > 100 µM (inactive); in assay [4], > 100 µM (inactive); in [5] it was > 100 µM (inactive); in [6] it was more than 100 µM. The GI50 in assay [7], in assay [8], in assay [9], in assay [10], in assay [11] and in [12] was > 100 µM (inactive) throughout. The GI50 in assay [13], in assay [14], in assay [15], in [16] and in [17] was > 100 µM (inactive) each time.

Consider `CN(C)CCC1(C2=CCCC2)CC/C(=C\c2ccc(Cl)cc2)C1=O` (centres undefined), for which the GI50 in assay [1] is 4.04 µM (inactive); in assay [2], 12.4 µM (inactive); in assay [3] it was 7.03 µM (inactive); in assay [4], 2.38 µM (inactive); in [5] it was 7.82 µM (inactive); in [6], 5.07 µM. The GI50 in [7] was 1.6 µM (inactive); in assay [8], 3.89 µM (inactive); in assay [9], 9.91 µM (inactive); in assay [10], 10.1 µM (inactive); in assay [11], 14.5 µM (inactive); in assay [12], 10.9 µM (inactive). The GI50 in assay [13] was 2.49 µM (inactive); in [14], 11.3 µM (inactive); in assay [15], 9.4 µM (inactive); in [16], 8.87 µM (inactive); in [17], 2.92 µM (inactive).

As to `CC(C)=C[C@@H]1C[C@H](n2cc(C)c(=O)[nH]c2=O)ON1CCO`, the GI50 in assay [1] was > 100 µM (inactive); in [2], > 100 µM (inactive); in [3], > 100 µM (inactive); in assay [4], > 100 µM (inactive); in assay [6], more than 100 µM; in assay [7] it was 3.08 µM (inactive). Moreover, the GI50 in assay [8], in assay [9], in assay [10], in [18], in assay [19] and in [12] was > 100 µM (inactive) in each case. Further, the GI50 in [13], in assay [14], in assay [15], in assay [16] and in [17] was > 100 µM (inactive) each time.

Turning to `CC12C3CC4C5CC(C(C53)[C@@H]1NCc1ccccc1)C42` (some centres undefined), the GI50 was > 100 µM (inactive) in assay [1]; > 100 µM (inactive) in [2]; 79.8 µM (inactive) in assay [3]; > 100 µM (inactive) in assay [4]; 15.5 µM (inactive) in [5]; 78.9 µM in assay [6]. Besides, the GI50 in assay [7] was > 100 µM (inactive); in assay [8], 55.7 µM (inactive); in assay [9], > 100 µM (inactive); in assay [10] it was > 100 µM (inactive); in [11], > 100 µM (inactive); in assay [12], > 100 µM (inactive). Further, the GI50 was > 100 µM (inactive) in assay [13]; > 100 µM (inactive) in [14]; > 100 µM (inactive) in assay [15]; 97.5 µM (inactive) in assay [16]; > 100 µM (inactive) in assay [17].

`O=C(C1OC1c1ccc(Br)cc1O)C12CC3CC(CC(C3)C1)C2` (centres undefined): the GI50 was 17.6 µM (inactive) in assay [1]; 37.8 µM (inactive) in assay [2]; 23.5 µM (inactive) in assay [4]; 21.4 µM (inactive) in assay [5]; 19.4 µM in [6]; 16.9 µM (inactive) in assay [7]. The GI50 in [8] was 17.7 µM (inactive); in assay [9] it was 19.5 µM (inactive); in assay [10] it was 14.6 µM (inactive); in assay [18], 18.1 µM (inactive); in assay [19], 17 µM (inactive); in assay [11], 19.2 µM (inactive). Further, the GI50 in assay [12] is 27.6 µM (inactive); in [13] it was 19.4 µM (inactive); in assay [14], 34.8 µM (inactive); in assay [15], 18.7 µM (inactive); in assay [16], 15.7 µM (inactive); in [17], 29 µM (inactive).

As for `c1ccc2nc3c(nc2c1)sc1ccccc13`, the GI50 in assay [1] is 23 µM (inactive); in assay [2], 16.4 µM (inactive); in [20] it was 39.2 µM (inactive); in [3], 9.25 µM (inactive); in assay [4], 30.9 µM (inactive); in assay [5] it was 32.9 µM (inactive). The GI50 was 58.9 µM in assay [6]; > 100 µM (inactive) in assay [7]; 47.4 µM (inactive) in assay [9]; 19.3 µM (inactive) in assay [10]; 30.5 µM (inactive) in [18]; 23.2 µM (inactive) in assay [11]. The GI50 in assay [12] was 13.6 µM (inactive); in assay [13], > 100 µM (inactive); in assay [14] it was 14.5 µM (inactive); in assay [15], 56 µM (inactive); in assay [16], 16 µM (inactive); in assay [17] it was 37.2 µM (inactive).

`CCOC(=O)CC[C@@H](NC(=O)c1ccc(N[C@@H]2c3cc4c(cc3C(c3cc(OC)c(O)c(OC)c3)C3C(=O)OC[C@@H]32)OCO4)cc1)C(=O)OCC` (some centres undefined): the GI50 in assay [1] is 3.85 µM (inactive); in assay [2], 0.0222 µM (active); in assay [3], 0.013 µM (active); in assay [4] it was 0.00525 µM (active); in [5] it was 0.136 µM (active); in assay [6], 0.0637 µM. The GI50 in [7] is 0.00292 µM (active); in assay [8] it was 0.0205 µM (active); in assay [9], 0.0322 µM (active); in [10], 0.0205 µM (active); in assay [11], 0.0103 µM (active); in [12], 0.001 µM (active). For the same molecule, the GI50 in assay [13] is 0.2 µM (active); in assay [14] it was 0.0197 µM (active); in assay [15], 0.0396 µM (active); in assay [16], 0.0175 µM (active); in assay [17], 0.13 µM (active).

`COC1=NN2C(OC)(c3ccccc3)c3c(-c4ccccc4)sc(-c4ccccc4)c3C2(c2ccccc2)S1` (centres undefined): the GI50 is > 100 µM (inactive) in assay [1]; > 100 µM (inactive) in assay [2]; > 100 µM (inactive) in assay [3]; > 100 µM (inactive) in assay [4]; > 100 µM (inactive) in assay [5]; more than 100 µM in assay [6]. In addition, the GI50 in assay [7], in assay [8], in [9], in assay [10], in [11] and in assay [12] was > 100 µM (inactive) throughout. In addition, the GI50 in [13], in [14], in assay [15], in [16] and in assay [17] was > 100 µM (inactive) in each case.

Turning to `CN(C)c1n/c(=N/Cc2cccnc2)ss1`, the GI50 in assay [1] is > 10 µM (inactive); in assay [2], > 10 µM (inactive); in assay [3], > 10 µM (inactive); in [4], 0.597 µM (active); in [6], more than 10 µM; in assay [7], 3.24 µM (inactive). The GI50 was > 10 µM (inactive) in assay [8]; > 10 µM (inactive) in [9]; 8.95 µM (inactive) in assay [10]; > 10 µM (inactive) in assay [18]; > 10 µM (inactive) in [19]; > 10 µM (inactive) in assay [11]. Also, the GI50 in assay [13], in assay [15] and in [17] was > 10 µM (inactive) each time.

As for `CCOC(=O)CCC1(CCC(=O)OCC)CCCCCCCCC(CCC(=O)OCC)(CCC(=O)OCC)C(=O)C1=O`, the GI50 was > 100 µM (inactive) in assay [1]; > 100 µM (inactive) in [2]; > 100 µM (inactive) in assay [3]; > 100 µM (inactive) in assay [5]; more than 100 µM in [6]; > 100 µM (inactive) in assay [8]. The GI50 in assay [9], in assay [10], in assay [19], in assay [11], in assay [12] and in assay [13] was > 100 µM (inactive) each time. For the same molecule, the GI50 in [14], in [15], in assay [16] and in assay [17] was > 100 µM (inactive) in each case.

On to `CN1CCC(OC(=O)Oc2ccccc2)(c2ccccc2)CC1`, for which the GI50 in assay [1] is > 100 µM (inactive); in [2], 38.2 µM (inactive); in assay [3], 77.3 µM (inactive); in assay [4], 21.8 µM (inactive); in [5], 19.6 µM (inactive); in [6] it was 16.7 µM. Also, the GI50 in assay [7] is 16.5 µM (inactive); in assay [9], 17.9 µM (inactive); in assay [10], 17.8 µM (inactive); in assay [18] it was 12.9 µM (inactive); in assay [19], 17.6 µM (inactive); in assay [11] it was 14.4 µM (inactive). Also, the GI50 is 13.5 µM (inactive) in [12]; 20.6 µM (inactive) in [13]; 25.4 µM (inactive) in [14]; 25.7 µM (inactive) in assay [15]; 21.9 µM (inactive) in assay [16]; 19.7 µM (inactive) in [17].

`Cc1ccc(NC(=O)/C(=N/NC(=O)CC#N)C2C(=O)N(c3ccccc3)N=C2N)cc1C` (centres undefined): the GI50 in assay [1] is > 100 µM (inactive); in [2], > 100 µM (inactive); in assay [3], > 100 µM (inactive); in assay [4] it was > 100 µM (inactive); in [5], > 100 µM (inactive); in [6], more than 100 µM. The GI50 in assay [7], in [8], in assay [9], in assay [10], in [11] and in assay [12] was > 100 µM (inactive) each time. Besides, the GI50 in [13], in [14], in [15], in assay [16] and in assay [17] was > 100 µM (inactive) throughout.
